Where two headings read alike, the source gives them in different places.
Key:
P. falciparum W2 [1] = assay: In vitro P. falciparum growth inhibition assay (SybrGreen), multi-drug-resistant W2 strain; format: cell-based, Plasmodium falciparum; conditions: for activity more potent than artesunate: W2, compared with artesunate EC50 = 5.7 nM
Experimental: (§1) Chloroquine-sensitive (3D7) and multi-drug-resistant (W2) P. falciparum strains were cultured following the candle jar method as described by Trager and Jensen. Briefly, parasites were maintained in RPMI 1640 medium supplemented with 10% A+ human plasma at 5% CO2 atmosphere. Ring stage synchronized cultures were obtained by two consecutive treatments with a 5% D-sorbitol solution [32] in 48 h intervals.
(§2) Parasite growth inhibition assays were conducted by distributing ring stage synchronized parasites at 2% hematocrit and 0.5% parasitemia in 96-well plates (NEST Biotechnology Co., Ltd., Wuxi, Jiangsu, China). Parasites were incubated in the presence of drugs in a two-fold 12-point serial dilution starting at 10 µM in duplicate. Chloroquine was used as an antimalarial standard. At the end of a 72 h incubation, parasitemia was determined by fluorescence reading at 490 nm excitation and 540 nm emission (BMG CLARIOstar, BMG Labtech Inc., Durham, NC, USA) using SybrGreen fluorescent dye as described by Hartwig et al.. Parasite growth inhibition was determined as a percentage relative to drug-free control. EC50 values were interpolated from log doses vs. inhibition curves in GraphPad Prism 6 (GraphPad, La Jolla, CA, USA).

P. falciparum 3D7 = assay: In vitro P. falciparum growth inhibition assay (SybrGreen), chloroquine-sensitive 3D7 strain; format: cell-based, Plasmodium falciparum; conditions: for inhibition at 5 µM: 3D7, read-out: inhibition of parasite growth
Experimental: as §1, §2

[2] = Cytotoxicity, MTT reduction assay; format: cell-based; conditions: human
Experimental: Cytotoxicity of selected compounds was evaluated using the MTT reduction assay (3-[4,5-dimethyl-thiazol-2-yl]-2,5-diphenyltetrazolium chloride). Human hepatoma (HepG2) cells were cultured in Dulbecco’s Modified Eagle Medium supplemented with gentamycin (40 mg/L) and 10% heat-inactivated fetal bovine serum at 37 °C and 5% CO2. Cells were seeded in 96-well plates (NEST Biotechnology Co., Ltd., Wuxi, Jiangsu, China) at 10^5 cells per well and incubated in the presence of a serial dilution of the drugs starting at 100 µM. After 72 h of incubation, MTT was added to the wells. The optical density was measured at 570 nm (CLARIOStar, Labtech BMG Inc, Durham, NC, USA) and cell viability was expressed as a percentage relative to the untreated control. CC50 values were calculated by plotting a log dose vs. viability curve in GraphPad Prism 6 (GraphPad, La Jolla, CA, USA). The selectivity index (SI) of the compounds was determined by the expression:SI = (HepG2 CC50)/(Pf EC50), where HepG2 CC50 corresponds to the cytotoxic concentration of compounds in HepG2 cells and Pf EC50 relates to the 50% inhibitory concentration on P. falciparum 3D7 strain.

P. falciparum W2 [3] = test system: P. falciparum W2; set-up: method as in PMID 25461309; conditions: read-out: EC50 against multi-resistant strain; cited from earlier work
[4] = Plasmodium falciparum, W2, 72 h, multi-drug-resistant W2 strain, 72 h, SybrGreen, ± standard deviation, read-out: EC50 PfW2
[5] = Plasmodium falciparum, 3D7, 72 h, chloroquine-sensitive 3D7 strain, 72 h, SybrGreen, ± standard deviation, read-out: EC50 Pf3D7
[6] = HepG2 cells, 72 h, MTT, read-out: CC50 HepG2
[7] = Plasmodium falciparum, W2, W2, text value, read-out: EC50 against P. falciparum W2
[8] = Plasmodium falciparum, 3D7, 3D7, text value, read-out: EC50 against P. falciparum 3D7
[9] = chloroquine-sensitive 3D7 strain, 72 h, SybrGreen, ± standard deviation, read-out: EC50 Pf3D7
[10] = multi-drug-resistant W2 strain, 72 h, SybrGreen, ± standard deviation, read-out: EC50 PfW2

Row | SMILES | EC50 (P. falciparum W2 [1]; [4]) | EC50 (P. falciparum 3D7; [5]) | EC50 (P. falciparum 3D7; [9]) | inhibition at 5 µM (P. falciparum 3D7; Plasmodium falciparum, 72 h) | CC50 at 72 h [2, 6] | further results
1 | COC(CNC(=O)CCC(=O)OC1OC2OC3(C)CCC4C(C)CCC(C1C)C24OO3)OC (stereo not drawn) [LDT-597] | – | – | – | > 70% | 18.3 ± 3.51 µM | EC50 (P. falciparum W2 [1]; [7]): 0.00056 µM; activity more potent than artesunate (P. falciparum W2 [1]): about 10 fold; EC50 (P. falciparum 3D7; [8]): 0.00054 µM
2 | C[C@H]1[C@H](OC(=O)CCC(=O)O)O[C@@H]2O[C@@]3(C)CC[C@H]4[C@H](C)CC[C@@H]1[C@@]24OO3 [Artesunate, reference compound] | – | 0.0016 µM | – | – | – | EC50 (P. falciparum W2 [3]): 0.0057 µM
3 | CCN(CC)CCCC(C)Nc1ccnc2cc(Cl)ccc12 (stereo not drawn) [Chloroquine, reference compound] | – | – | – | – | – | EC50 (P. falciparum W2 [1]; Plasmodium falciparum, W2, 72 h, read-out: EC50 PfW2): 0.147 ± 0.04 µM; EC50 (P. falciparum 3D7; Plasmodium falciparum, 3D7, 72 h, read-out: EC50 Pf3D7): 0.0079 µM
4 | CC(NC(=O)CCCNC(=O)CCC(=O)OC1OC2OC3(C)CCC4C(C)CCC(C1C)C24OO3)C(=O)O (stereo not drawn) [LDT-598] | – | – | – | > 70% | 25.9 ± 1.13 µM | EC50 (P. falciparum W2 [1]; [7]): 0.00059 µM; activity more potent than artesunate (P. falciparum W2 [1]): about 10 fold; EC50 (P. falciparum 3D7; [8]): 0.00078 µM
5 | CCOC(=O)c1ccc2[nH]cc(C(=O)OCC)c(=O)c2c1 [LDT-588] | – | < 5 µM | 3.84 ± 1.45 µM | > 70% | 67 ± 2.28 µM | –
6 | COc1ccccc1CNC(=O)C1CN2CCC1CC2Cn1cc(-c2cccc(N)c2)nn1 (stereo not drawn) [LDT-586] | < 5 µM | < 5 µM | 4.52 ± 0.91 µM | > 70% | – | EC50 (P. falciparum W2 [1]; [10]): 3.44 ± 1.3 µM; CC50 at 72 h [2]: 98.6 µM

Further lines, with some results ahead:

Row | EC50 (P. falciparum W2 [1]; [4]) | EC50 (P. falciparum 3D7; [5]) | EC50 (P. falciparum 3D7; [9]) | SMILES | inhibition at 5 µM (P. falciparum 3D7; Plasmodium falciparum, 72 h) | CC50 at 72 h [2, 6] | further results
7 | 3.11 ± 0.54 µM | 9.09 ± 3.74 µM | – | Cn1c(=O)[nH]c2nnc(-c3ccc(Cl)cc3)nc2c1=O [LDT-592] | > 70% | 17 µM | –
8 | 5.65 ± 3.11 µM | 5.26 ± 0.52 µM | – | COc1ccc(C2CC(=O)NC3=C2C(=O)C2(Oc4c(Cl)c(OC)cc(OC)c4C2=O)C(C)C3)cc1O (stereo not drawn) [LDT-614] | > 70% | 23.6 ± 1.82 µM | –
9 | 0.65 ± 0.47 µM | 6.61 ± 3.2 µM | – | COc1cc(C2NCCc3cc(OC)c(OC)cc32)ccc1O (stereo not drawn) [LDT-601] | > 70% | 21.8 ± 4.16 µM | –
10 | < 5 µM | < 5 µM | 3.68 ± 1.92 µM | COc1ccc(C2c3[nH]c4ccccc4c3C[C@H]3C(=O)N(C4CC4)CC(=O)N23)cc1OC (stereo partly drawn) [LDT-599] | > 70% | 21 ± 2.51 µM | EC50 (P. falciparum W2 [1]; [10]): 2.74 ± 0.78 µM

From article PMC8003391, “QSAR-Based Virtual Screening of Natural Products Database for Identification of Potent Antimalarial Hits” (Biomolecules, 2021)
